Source: the supplement of paper PMC10307832

Tests used:
Assay in all cases: relative viability (nuclei count vs DMSO), 5 days (fraction); higher = more cells survive
NCI-H3122 = system: NCI-H3122
Outline: (§1)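 Relative viability was taken as the ratio of nuclei in treated wells to nuclei in vehicle wells. Lung cancer cell lines in 1536-well plates received compounds by pin tool one day after seeding, either one drug alone or a fixed anchor-drug dose plus five library-drug doses (not always all listed) in √10 steps. Nuclei were counted on 4× images after 5 days of treatment, and values are medians of duplicate plates.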

NCI-H2228 = system: NCI-H2228
Outline: as §1

NCI-H2405 = system: NCI-H2405
Outline: as §1

HCC-366 = system: HCC-366
Outline: as §1

NCI-H2009 = system: NCI-H2009
Outline: as §1

NCI-H596 = system: NCI-H596
Outline: as §1

SW 1573 = system: SW 1573
Outline: as §1

SK-MES-1 = system: SK-MES-1
Outline: as §1

PC-14 = system: PC-14
Outline: as §1

HOP-62 = system: HOP-62
Outline: as §1

NCI-H2085 = system: NCI-H2085
Outline: as §1

NCI-H1734 = system: NCI-H1734
Outline: as §1

NCI-H1993 = system: NCI-H1993
Outline: as §1

NCI-H2347 = system: NCI-H2347
Outline: as §1

RERF-LC-KJ = system: RERF-LC-KJ
Outline: as §1

HCC-78 = system: HCC-78
Outline: as §1

NCI-H838 = system: NCI-H838
Outline: as §1

CAL-12T = system: CAL-12T
Outline: as §1

LC-2-ad = system: LC-2-ad
Outline: as §1

NCI-H1355 = system: NCI-H1355
Outline: as §1

EMC-BAC-2 = system: EMC-BAC-2
Outline: as §1

LK-2 = system: LK-2
Outline: as §1

O=C(O)CCCCC(CCSCc1ccccc1)SCc1ccccc1 (centres undefined) [CPI-613] + Cc1nc(NC(=O)N2CCC[C@H]2C(N)=O)sc1-c1ccnc(C(C)(C)C(F)(F)F)c1 [Alpelisib] (partner 2 µM)
relative viability (NCI-H3122; first compound 5 µM): 0.638
relative viability (NCI-H3122; first compound 15.81 µM): 0.751
relative viability (NCI-H3122; first compound 50 µM): 0.715
relative viability (NCI-H3122; first compound 158.11 µM): 0.528
relative viability (NCI-H3122; first compound 500 µM): 0.0415
relative viability (NCI-H2228; first compound 5 µM): 0.799
relative viability (NCI-H2228; first compound 15.81 µM): 0.6
relative viability (NCI-H2228; first compound 50 µM): 0.547
relative viability (NCI-H2228; first compound 158.11 µM): 0.344
relative viability (NCI-H2228; first compound 500 µM): 0.0239
relative viability (NCI-H2405; first compound 5 µM): 0.882
relative viability (NCI-H2405; first compound 15.81 µM): 0.78
relative viability (NCI-H2405; first compound 50 µM): 0.778
relative viability (NCI-H2405; first compound 158.11 µM): 0.772
relative viability (NCI-H2405; first compound 500 µM): 0.734
relative viability (HCC-366; first compound 5 µM): 0.322
relative viability (HCC-366; first compound 15.81 µM): 0.373
relative viability (HCC-366; first compound 50 µM): 0.441
relative viability (HCC-366; first compound 158.11 µM): 0.355
relative viability (HCC-366; first compound 500 µM): 0.0061
relative viability (NCI-H2009; first compound 5 µM): 1.19
relative viability (NCI-H2009; first compound 15.81 µM): 1.1
relative viability (NCI-H2009; first compound 50 µM): 1.12
relative viability (NCI-H2009; first compound 158.11 µM): 0.141
relative viability (NCI-H2009; first compound 500 µM): 0.014
relative viability (NCI-H596; first compound 5 µM): 0.539
relative viability (NCI-H596; first compound 15.81 µM): 0.496
relative viability (NCI-H596; first compound 50 µM): 0.539
relative viability (NCI-H596; first compound 158.11 µM): 0.473
relative viability (NCI-H596; first compound 500 µM): 0.0181
relative viability (SW 1573; first compound 5 µM): 0.729
relative viability (SW 1573; first compound 15.81 µM): 0.764
relative viability (SW 1573; first compound 50 µM): 0.806
relative viability (SW 1573; first compound 158.11 µM): 0.778
relative viability (SW 1573; first compound 500 µM): 0.669
relative viability (SK-MES-1; first compound 5 µM): 0.894
relative viability (SK-MES-1; first compound 15.81 µM): 0.982
relative viability (SK-MES-1; first compound 50 µM): 0.784
relative viability (SK-MES-1; first compound 158.11 µM): 0.724
relative viability (SK-MES-1; first compound 500 µM): 0.785
relative viability (PC-14; first compound 5 µM): 0.97
relative viability (PC-14; first compound 15.81 µM): 0.884
relative viability (PC-14; first compound 50 µM): 0.849
relative viability (PC-14; first compound 158.11 µM): 1.01
relative viability (PC-14; first compound 500 µM): 0.863
relative viability (HOP-62; first compound 5 µM): 1.07
relative viability (HOP-62; first compound 15.81 µM): 0.833
relative viability (HOP-62; first compound 50 µM): 0.916
relative viability (HOP-62; first compound 158.11 µM): 0.189
relative viability (HOP-62; first compound 500 µM): 0.246
relative viability (NCI-H2085; first compound 5 µM): 1.01
relative viability (NCI-H2085; first compound 15.81 µM): 0.927
relative viability (NCI-H2085; first compound 50 µM): 0.906
relative viability (NCI-H2085; first compound 158.11 µM): 0.591
relative viability (NCI-H2085; first compound 500 µM): 0.242
relative viability (NCI-H1734; first compound 5 µM): 0.629
relative viability (NCI-H1734; first compound 15.81 µM): 0.694
relative viability (NCI-H1734; first compound 50 µM): 0.625
relative viability (NCI-H1734; first compound 158.11 µM): 0.493
relative viability (NCI-H1734; first compound 500 µM): 0.098
relative viability (NCI-H1993; first compound 5 µM): 0.709
relative viability (NCI-H1993; first compound 15.81 µM): 0.721
relative viability (NCI-H1993; first compound 50 µM): 0.752
relative viability (NCI-H1993; first compound 158.11 µM): 0.485
relative viability (NCI-H1993; first compound 500 µM): 0.432
relative viability (NCI-H2347; first compound 5 µM): 1.02
relative viability (NCI-H2347; first compound 15.81 µM): 0.963
relative viability (NCI-H2347; first compound 50 µM): 0.959
relative viability (NCI-H2347; first compound 158.11 µM): 1.05
relative viability (NCI-H2347; first compound 500 µM): 0.973
relative viability (RERF-LC-KJ; first compound 5 µM): 0.748
relative viability (RERF-LC-KJ; first compound 15.81 µM): 1.34
relative viability (RERF-LC-KJ; first compound 50 µM): 0.757
relative viability (RERF-LC-KJ; first compound 158.11 µM): 0.869
relative viability (RERF-LC-KJ; first compound 500 µM): 0.733
relative viability (HCC-78; first compound 5 µM): 0.26
relative viability (HCC-78; first compound 15.81 µM): 0.309
relative viability (HCC-78; first compound 158.11 µM): 0.338
relative viability (HCC-78; first compound 500 µM): 0.358
relative viability (NCI-H838; first compound 5 µM): 0.979
relative viability (NCI-H838; first compound 15.81 µM): 0.922
relative viability (NCI-H838; first compound 50 µM): 0.91
relative viability (NCI-H838; first compound 158.11 µM): 0.589
relative viability (NCI-H838; first compound 500 µM): 0.0842
relative viability (CAL-12T; first compound 5 µM): 1
relative viability (CAL-12T; first compound 15.81 µM): 1.11
relative viability (CAL-12T; first compound 50 µM): 1.14
relative viability (CAL-12T; first compound 158.11 µM): 0.0352
relative viability (CAL-12T; first compound 500 µM): 0.0082
relative viability (LC-2-ad; first compound 5 µM): 0.83
relative viability (LC-2-ad; first compound 15.81 µM): 0.818
relative viability (LC-2-ad; first compound 50 µM): 0.8
relative viability (LC-2-ad; first compound 158.11 µM): 0.201
relative viability (LC-2-ad; first compound 500 µM): 0.006
relative viability (NCI-H1355; first compound 5 µM): 0.834
relative viability (NCI-H1355; first compound 15.81 µM): 0.813
relative viability (NCI-H1355; first compound 50 µM): 0.918
relative viability (NCI-H1355; first compound 158.11 µM): 0.413
relative viability (NCI-H1355; first compound 500 µM): 0.134
relative viability (EMC-BAC-2; first compound 5 µM): 0.713
relative viability (EMC-BAC-2; first compound 15.81 µM): 0.702
relative viability (EMC-BAC-2; first compound 50 µM): 0.72
relative viability (EMC-BAC-2; first compound 158.11 µM): 0.68
relative viability (EMC-BAC-2; first compound 500 µM): 0.119
relative viability (LK-2; first compound 5 µM): 1.01
relative viability (LK-2; first compound 15.81 µM): 0.98
relative viability (LK-2; first compound 50 µM): 1.06
relative viability (LK-2; first compound 158.11 µM): 1.16
relative viability (LK-2; first compound 500 µM): 0.82
